According to PubChem BioAssay (NCI):
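Results reflect a 48-hour exposure of cells in 96-well plates to compound at five concentrations. Abbreviation: GI50, concentration required for 50% inhibition of growth. Definition used: TGI = concentration required for complete inhibition of growth.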

The compounds below were run on MDA-MB-468 breast (assay: DTP human tumour cell line panel, 48 h).

Row | SMILES | GI50 [µM] | TGI [µM]
1 | COc1ccc(-c2cnc(-c3ccc(F)cc3)[nH]2)cc1 | 2.22 | 7
2 | O=C1/C(=C/c2ccccc2)SC(=Nc2ccccc2)N1Nc1ccccc1 | 14 | > 100
3 | O=C1C(Cl)=C(Nc2ccc3cn[nH]c3c2)C(=O)c2ccccc21 | 1.14 | 2.4
4 | COc1cc(NN=C(c2ccc(O)cc2)c2ccc(O)cc2)c([N+](=O)[O-])cc1[N+](=O)[O-] | 12.5 | 25
5 | Cn1ccc(=Nc2ccc(NC(=O)c3ccc(N=c4ccn(C)c5ccc([N+](=O)[O-])cc45)cc3)cc2)cc1 | 7.28 | > 100
6 | NC1=NC(c2ccccc2)N=C(Nc2ccccc2)N1 (centres undefined) | 44.4 | > 100
7 | CCNC(=O)Oc1ccc(/C(=C(/C)c2ccc(Cl)cc2)c2ccc(OCCN3CCCCCC3)cc2)cc1 | 1.44 | 3.07
8 | Cc1ccc(S(=O)(=O)Oc2ccc3c4c(c(=O)oc3c2)CCCCC4)cc1 | 2.77 | > 100
9 | CS(=O)(=O)N1CCN(Cc2cc3nc(-c4cccc5[nH]ncc45)nc(N4CCOCC4)c3s2)CC1 (tested in a mixture with another compound) | 0.109 | 0.697
10 | Nc1c(C(=O)c2cccc(OCCN3CCOCC3)c2)cnn1-c1ccc(F)cc1 | > 25 | > 25
11 | CC[N+](CC)=c1ccc2nc3c(cc(NCc4ccccc4)c4ccccc43)oc-2c1 | 0.134 | 1.07
12 | CCCCCCCCOc1ccc(/C=N/Nc2cc(C)nc3ccc(Cl)cc23)cc1 | 1.79 | 3.42
13 | C=C1C(=O)O[C@H]2[C@H]1CC/C(COC(=O)C(=O)c1c[nH]c3ccc(OC)cc13)=C\CC[C@@]1(C)O[C@@H]21 | 2.17 | 4.77
14 | N#CC1C(=N)Cc2ccccc2-c2ccccc21 (centres undefined) | 3.15 | 13.4
15 | Nc1ccn([C@H]2C[C@@H](O)[C@@H](CO)S2)c(=O)n1 | > 100 | > 100
16 | Nc1nc2ccc([C@@H]3Nc4ccc5[nH]ncc5c4[C@H]4[C@H]5CCC(C5)[C@H]43)cc2s1 | 0.403 | 2.53
17 | Cc1ccc(N=C2CSc3nnc(-c4csc5c4CCCC5)n3N2)cc1 | 0.142 | > 50
18 | Nc1nc2c(c3ncccc13)C(c1cccc(Cl)c1)Cc1ncccc1-2 (centres undefined) | 1.61 | 22.7
19 | C/C=C(\C)C(=O)O[C@@H]1C(O)[C@H]2OC(COC(=O)CCC(=O)CCCCCC[C@H](CCCCC)O[C@@H]3OC(C)[C@H](OC(C)=O)C(O)[C@H]3O2)[C@H]1OC(=O)/C=C/c1ccccc1 (some centres undefined) | < 0.01 | 1.18

Row | SMILES | GI50 [µM] | TGI [µM]
20 | Nc1ccc(C#Cc2cncnc2Nc2ccc(OCc3cccc(F)c3)c(Cl)c2)cc1 | 1.15 | 9.24
21 | COc1ccc(/C=C(/C(=O)N2CCCC2)c2cc(OC)c(OC)c(OC)c2)cc1N | 1.28 | > 100
22 | CN(C)CCNC(=O)c1cccc2cc3ccccc3nc12 | 1.26 | 4.21
23 | CCOC(=O)/C=C1\SC(=Nc2ccc(C#N)cc2)N(CCN2C(=O)/C(=C/C(=O)OCC)SC2=Nc2ccc(C#N)cc2)C1=O | 3.1 | 17.4
24 | CC(CN)[C@@H]1CC[C@]2(CO)CC[C@]3(C)[C@H](CC[C@@H]4[C@@]5(C)CCC(NCCO)C(C)(C)[C@@H]5CC[C@]43C)[C@@H]12 (some centres undefined) | 1.48 | 3.08
25 | O=C(Oc1ccc([N+](=O)[O-])cc1)N1CCN(Cc2cccc(Oc3ccccc3)c2)CC1 | 19.1 | > 100
26 | COc1ccc2nc(NCCCNCCO)c3sc4ccc(F)cc4c(=O)c3c2c1 | 1.71 | 3.28
27 | COc1ccc(C2NCCc3c2[nH]c2ccccc32)cc1CN1CCN(c2ccc(F)cc2)CC1 (centres undefined) | 1.67 | 3.36
28 | CN1CCN(CC(=O)Nc2ccc3ncnc(Nc4ccc(Oc5cccc(C(F)(F)F)c5)c(Cl)c4)c3c2)CC1 | 1.16 | 2.66
29 | CN1CCN(c2ccc(-c3cnc4c(-c5csc6ccccc56)cnn4c3)cc2)CC1 | > 15 | > 15
30 | COC(=O)c1ccc(=O)c2nc3/c(=C/O)c(O)cc(=O)c3[nH]c12 | 0.937 | 48.5
31 | O=C(Nc1cnn2ccc(N3CCC[C@@H]3c3cc(F)ccc3F)nc12)N1CC[C@H](O)C1 | > 100 | > 100
32 | N#C/C(=C\c1ccc(Br)cc1)n1nnc2cccc(F)c21 | 0.327 | 1.15
33 | COc1ncc(-c2nc3c(n2C(C)C)[C@H](c2ccc(Cl)cc2)N(c2cc(Cl)cn(C)c2=O)C3=O)c(OC)n1 | 18.2 | 71.4
34 | COc1cc2cc(Oc3ccc(NC(=O)Nc4ccccc4)cc3)c(C)nc2cc1OCCN1CCCCC1 | 5.64 | 10.8
35 | C=C(CNCCc1ccc(O)cc1)[C@@H]1CC[C@]2(CO)CC[C@]3(C)[C@H](CC[C@@H]4[C@@]5(C)CCC(=O)C(C)(C)[C@@H]5CC[C@]43C)[C@@H]12 | 1.53 | 3.1
36 | COC(=O)[C@]12CC[C@@H](C)[C@H](C)[C@@H]1C1=CC[C@@H]3[C@@]4(C)C(C=O)=C[C@@](C)(COC(C)=O)[C@@H]4[C@H](O)C[C@@]3(C)[C@]1(C)CC2 | 2.04 | 4.4
37 | COC(=O)c1c2c(c(C)[n+]([O-])c1C)C(=O)C=C(NCc1cccc(OC)c1)C2=O | 0.257 | 0.797
